# “Also recorded” adds a separate entry of the source.
# B1: EntV: 68 amino acid active C-terminal form of the E. faecalis bacteriocin EntV (SEQ ID NO: 14) (protein, listed as Enterococcus faecalis)
# chain: LGSCVANKIKDEFFAMISISAIVKAAQKKAWKELAVTVLRFAKANGLKTNAIIVAGQLALWAVQCGLS
# Experiments:
# C. albicans [1] = assay: Mouse OPC (oropharyngeal candidiasis) model; format: in vivo
# Experimental: Mouse OPC model. The efficacy of EntV fragments were tested in the OPC model as described (Graham et al., 2017; Solis and Filler, 2012). Mice were immunosuppressed by injecting 225 mg/kg cortisone acetate subcutaneously 1 d before inoculation, and subsequently on days 1 and 3 of the infection. Group size was 6-8. To prepare the inoculum, 1 ml of C. albicans (SC5314) overnight culture grown at 30° C. in YPD broth was washed twice in PBS before resuspension in sterile Hanks' balanced salt solution (HBSS) at a concentration of 1×10^6 cells/mL. Calcium alginate swabs were soaked in this inoculum for 5 minutes prior to inoculation. Mice were anesthetized using ketamine and xylazine and placed on pre-warmed isothermal pads and the swabs were placed sublingually for 75 min. Mice were given additional doses of ketamine (50 mg/kg), as necessary. After inoculation, mice were given drinking water with EntV fragments or DMSO (0.01%) in the drinking water ad libitum. Mice were euthanized at 5 d after inoculation, unless noted. The tongues were excised and cut in half laterally for tissue histology and assessment of fungal burden.
# For tissue histology the tongue sample was placed in 10% zinc-buffered formalin overnight and stored in 80% ethanol, before embedding in paraffin. For each tongue, 5 μm sections were prepared using a Leica microtome and stained using Periodic Acid-Schiff (PAS) stain. Epithelial invasion was measured from 40× images taken of the entire tissue section of each tongue half with the total area of epithelium and infected epithelium were measured using ImageJ (version 1.6). Measurements were totaled and expressed as a percentage of total infected epithelium relative to the entire epithelial area (Graham et al., 2017; Moyes et al., 2016).
# For examination of fungal burden, qPCR was used by amplifying a 269-bp fragment of the internal transcribed spacer 2 (ITS2) between the 5.8S and 28S ribosomal RNA genes of C. albicans (Graham et al., 2017; Khot et al., 2009). DNA was extracted from homogenized tongue tissue using the Yeast DNA Extraction Kit (Thermo Scientific) according to the protocol with minor modifications. The ITS2 fragment was amplified by qPCR was performed with a CFX96 Real-Time System with a C1000 Touch thermal cycler (BioRad). C. albicans gDNA was quantified using FastStart Universal SYBR Green master mix with ROX (Roche). To screen for contamination and background fluorescence during the qPCR amplification, no template controls were used.
# C. albicans [2] = assay: Intravenous (disseminated candidiasis) infection model, survival; format: in vivo, mouse; settings: C. albicans pre-incubated with 100 nM for two hours prior to IV injection
# Description: The wild-type 12-mer is protective in a systemic mouse model of C. albicans infection. Systemic bloodstream infections by C. albicans are the most life-threatening to patients. Mortality rates from disseminated candidiasis exceed 40% and new treatments are in dire need. Since EntV impairs hyphal morphogenesis and biofilm formation rather than killing C. albicans (Graham et al., 2017), it was unclear if EntV and EntV derivatives would be protective in a systemic infection model. To increase the chances of observing an effect, C. albicans were pre-incubated with 100 nM of EntV or the 12-mer for two hours prior to intravenous (IV) injection of 1×10^5 CFU. […] The median survival of animals injected with C. albicans alone was 7.5 days and all animals had expired by 11 days.
# Intravenous infection model. The disseminated candidiasis model was performed as described (Miramon and Lorenz, 2016; Williams and Lorenz, 2020). C. albicans SC5314 was grown overnight in YPD at 30° C., then diluted to a very low concentration and grown in a second overnight. The late-log phase culture was collected by centrifugation, washed in PBS, and diluted to 5×10^6 cells/ml in PBS containing vehicle (0.01% DMSO) or 100 nM EntV or the 12-mer peptide and incubated for 2 hours at room temperature. […] Animals were monitored at least twice daily for 21 days for signs of moribundity.
# C. albicans [3] = assay: C. albicans adhesion assay (polystyrene plates, crystal violet); format: cell-based; settings: vs. DMSO control
# Experimental: This, like many manifestations of Candida infections, requires adhesion of the fungal cell to surfaces, both biotic and abiotic, whereupon biofilm structures are commonly formed. A model in which binding to plastic surfaces is a measure of the initial stage of biofilm differentiation. In this assay, cells are incubated in polystyrene 96 well plates with the peptides in PBS for one hour and then overlaid with artificial saliva media for 90 minutes before washing and quantitation of adhesion using crystal violet.
# C. albicans adhesion assays. The C. albicans adhesion assays were performed using similar techniques as described previously (Gulati et al., 2018). C. albicans strains were grown in YPD broth for 18 h at 30° C. with agitation and then sub-cultured for 4 h in the same conditions. Cells were then collected by centrifugation, washed twice in PBS, and adjusted to a concentration of 1×10^7 cells/ml (measured with Countess II, Life Technologies) in PBS treated with the indicated concentrations of test compounds. The cell suspension was incubated for 1 h at 30° C. with agitation. […]
# The adhered cell layer was then stained for 20 minutes with 40 μl of 0.08% crystal violet solution (diluted, Sigma). […] The optical density at 595 nm (OD595) was measured using a Synergy H1 plate reader (BioTek) with Gen5 version 3.08 software (BioTek).
# [4] = 10 nM and 1 nM in drinking water
# [5] = 100 nM in drinking water for 5 days following inoculation
# [6] = 100 nM starting at day three, sacrificed on day five
molecule,measurement,setting,value
VAGQLALWAVQC [12aa],Epithelial invasion,C. albicans [1]; [4],the reduction in invasion remains dramatic
same,Fungal burden on the tongue,C. albicans [1]; [4],only a slight reduction in fungal burden on the tongue
same,Fungal burden,C. albicans [1]; 50 nM in drinking water,loss of efficacy in terms of fungal burden
same,Hyphal invasion,C. albicans [1]; 50 nM in drinking water,still a significant lowering of hyphal invasion
same,Hyphal invasion relative to fluconazole,C. albicans [1]; 100 nM and 500 nM vs. 4 μg/mL fluconazole,slightly less prevalent
same,Fungal burden in the tongue (C. albicans DNA by qPCR),C. albicans [1]; [5],equally effective
same,Hyphal (epithelial) invasion of the tongue,"C. albicans [1]; 100 nM in drinking water for 5 days following inoculation, listed as 12-mer",at least as effective as the full length EntV; also recorded: most reduced
same,"Fungal burden, treatment of established infection",C. albicans [1]; [6],significantly less fungal burden compared to both groups of untreated animals
same,"Hyphal invasion, treatment of established infection",C. albicans [1]; [6],The same patterns were observed
same,Fungal burden relative to fluconazole,"C. albicans [1]; 100 nM vs. 4 μg/mL fluconazole, day 5",even more effective at reducing fungal burden than 4 μg/mL fluconazole
same,Animals alive at end of experiment (day 22),C. albicans [2],about half the animals were still alive
same,Adhesion of C. albicans to polystyrene,C. albicans [3],as effective in protecting against C. albicans infection in the worm model and inhibiting surface adhesion as full-length EntV
B1,Fungal burden in the tongue (C. albicans DNA by qPCR),C. albicans [1]; [5],significantly reduced the fungal burden
same,Animals alive at end of experiment (day 22),C. albicans [2],about half the animals were still alive
same,Adhesion of C. albicans to polystyrene,C. albicans [3],significantly reduced adhesion to polystyrene
